# Measurements as given in patent US20240075005A1 (LIGALLI BV, priority 2021, published 2024).
# Where “and” joins values, the source holds several entries; their conditions need not be identical. Equal values may be shown once.
# Assay: Pharmacokinetic trial: single 3 mg intravaginal dose of oxybutynin HCl delivered by the MedRing vaginal ring, plasma LC/MS/MS
# Format: in vivo, human (female subjects)
# Description: This trial investigated the feasibility of pulsed intra-vaginal delivery of oxybutynin and explored systemic exposure after application via the MedRing device.
# The trial included female subjects of childbearing potential (women of childbearing potential, WOCBP) aged between 18 and 45 years (inclusive) and female postmenopausal subjects aged between 50 and 69 years (inclusive); Postmenopausal status is defined as age≥50 years and having >12 months amenorrhoea in the absence of hormonal therapy that may cause amenorrhoea.
# Subjects began a 4-hour pre-dose fasting period before arriving to the clinic until 2 hours post-dose. Upon arrival, the subjects underwent pre-dose measurements to re-confirm eligibility for the study and to perform baseline measurements. The MedRing was inserted intra-vaginally by medically trained personnel. Water was allowed ad libitum. Subjects underwent blood sampling throughout the day. The MedRing was removed by medical study personnel 2 hours post dose in the first cohort. The MedRing was removed by medical personnel 6 hours post dose in the second cohort. The subjects went home approximately 8 hours post dose. The following day, the subjects of the second cohort returned to the clinic for an ambulant blood sample.
# Plasma samples were also used for assessment of the concentrations of the metabolite, N-desethyloxybutynin.
"AUC(0-inf) (female, human, in vivo, 3 mg) [ng·h/mL]","Cmax (female, human, in vivo, 3 mg) [ng/mL]","Tmax (female, human, in vivo, 3 mg) [h]","half-life (female, human, in vivo, 3 mg) [h]","t1/2, mean (±SD) (female, human, in vivo, 3 mg)","tmax, median (min-max) (female, human, in vivo, 3 mg)","plasma levels after 22 hours (female, human, in vivo, 22 h)",Compound,"Area under the concentration-time curve to infinity (AUCinf) in plasma, mean (±SD) (3 mg oxybutynin HCl intravaginal via MedRing)","t1/2, mean (±SD) (3 mg oxybutynin HCl intravaginal via MedRing, plasma) [h]","tmax, median (min-max) (3 mg oxybutynin HCl intravaginal via MedRing, post dose, plasma)","Cmax in plasma, mean (±standard deviation) (3 mg oxybutynin HCl intravaginal via MedRing, single dose, 8 female subjects) [ng/mL]",plasma concentrations relative to known safety window (intravaginal via MedRing),"plasma levels after 22 hours (second cohort (MedRing in situ 6 hours), 22-hour sample)"
,,,,,,,CCNCC#CCOC(=O)C(O)(c1ccccc1)C1CCCCC1 (stereo not shown) [N-desethyloxybutynin],51.1 (±43.1),7.7,4 hours and 4 (3-5) hours,3.9,well within the known safety window,found in all 4 subjects
34.9,5.4,2,8.5,8.5 (±3.5) hours,2 (1-5) hours,found in all 4 subjects,CCN(CC)CC#CCOC(=O)C(O)(c1ccccc1)C1CCCCC1 (stereo not shown) [oxybutynin],,,,,,
